Reference: PubChem BioAssay AID977614 (Broad Institute, 2014)
Activity calls are given as the source filed them.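 How the source made its calls: active means parasite count per well reduced by over 3 SD from the mean, with host cell number above 80% of untreated; inactive means the rest.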

Tested on: L. donovani amastigotes in THP-1 macrophages, DAPI imaging, 72 h
Experiment: antileishmanial activity in infected macrophages – imaging, THP-1 host macrophages, single concentration (AID 977614);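 further: signal is the parasite per host cell ratio from DAPI stained kinetoplasts and nuclei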

In the case of C/C=C/c1ccc([C@@H]2[C@@H](CN(C)C(C)=O)N(C(=O)NC(C)C)[C@H]2CO)cc1, the AC50 is reported as > 10 µM (inactive).
CC(=O)N1[C@@H](CO)[C@@H]2c3ccccc3N(C(=O)c3ccc(F)cc3)C[C@@H]21 was tested, and the AC50 was > 10 µM (inactive).
For CCC(=O)N1[C@@H](CO)[C@H](c2ccccc2)[C@@H]1CN(C)C(=O)CN1CCOCC1, the AC50 was > 10 µM (inactive).
With COCCN(C[C@@H]1[C@@H](c2ccccc2)[C@H](CO)N1C(C)=O)C(=O)c1cccnc1 the AC50 was > 10 µM (inactive).
With O=C(Nc1cccc(F)c1)N1C[C@H]2[C@@H](c3ccccc31)[C@@H](CO)N2C(=O)Cc1ccccn1 the AC50 was > 10 µM (inactive).
For CC(=O)NC[C@@H]1[C@@H](c2ccc(-c3cccnc3)cc2)[C@@H](CO)N1C(=O)CC1CC1, the AC50 was > 10 µM (inactive).
C/C=C/c1ccc([C@H]2[C@@H](CO)N(CCC)[C@H]2CNC(=O)CN2CCOCC2)cc1 was tested, and the AC50 was > 10 µM (inactive).
In the case of CC(=O)N1[C@H](CO)[C@@H](c2ccccc2)[C@@H]1CN(CC1CCC1)C(=O)CN(C)C, the AC50 is reported as > 10 µM (inactive).
C[C@H](CO)N1C[C@H](C)[C@@H](CN(C)S(=O)(=O)c2cccc(C#N)c2)OCc2cn(nn2)CCCC1=O was tested, and the AC50 was > 10 µM (inactive).
In the case of C[C@H]1CN([C@@H](C)CO)C(=O)CCCn2cc(nn2)CO[C@@H]1CN(C)C(=O)Nc1ccc2c(c1)OCO2, the AC50 is reported as > 10 µM (inactive).
With O=C(Nc1ccc(F)cc1)N1C[C@H]2[C@@H](c3ccccc31)[C@H](CO)N2C(=O)c1ccncc1 the AC50 was > 10 µM (inactive).
With C[C@@H]1CN([C@H](C)CO)C(=O)CCCn2nncc2CO[C@H]1CN(C)Cc1ccccc1C(=O)O the AC50 was > 10 µM (inactive).
For O=C(c1ccc2c(c1)OCO2)N1C[C@@H]2[C@H](c3ccccc31)[C@@H](CO)N2C(=O)CC1CC1, the AC50 was > 10 µM (inactive).
With COCCN(C[C@@H]1[C@@H](c2ccccc2)[C@H](CO)N1C(=O)C1CC1)C(C)=O the AC50 was > 10 µM (inactive).
C[C@@H]1CN([C@@H](C)CO)C(=O)CCCn2nncc2CO[C@H]1CN(C)Cc1ccc2c(c1)OCCN2C was tested, and the AC50 was > 10 µM (inactive).
For C[C@@H]1CN([C@@H](C)CO)C(=O)CCCn2cc(nn2)CO[C@H]1CN(C)S(=O)(=O)c1ccc(-n2cccn2)cc1, the AC50 was > 10 µM (inactive).
For O=C(Nc1ccc(F)cc1)N1C[C@H]2[C@@H](c3ccccc31)[C@@H](CO)N2Cc1ccccc1Cl, the AC50 was > 10 µM (inactive).
COCC(=O)N1[C@@H]2CN(C(=O)c3cccnc3)c3ccccc3[C@@H]2[C@@H]1CO was tested, and the AC50 was > 10 µM (inactive).
In the case of O=C(Nc1ccccc1F)N1C[C@@H]2[C@H](c3ccccc31)[C@@H](CO)N2C(=O)Cc1cccnc1, the AC50 is reported as > 10 µM (inactive).
In the case of CCCNC(=O)N1[C@@H](CO)[C@@H]2c3ccccc3N(C(=O)Nc3cccc(Cl)c3)C[C@@H]21, the AC50 is reported as > 10 µM (inactive).
In the case of C[C@@H]1CN([C@@H](C)CO)C(=O)CCCn2nncc2CO[C@H]1CN(C)Cc1ccccc1C(=O)O, the AC50 is reported as > 10 µM (inactive).
With C[C@H](CO)N1C[C@H](C)[C@@H](CN(C)C(=O)NC2CCCCC2)OCc2cn(nn2)CCCC1=O the AC50 was > 10 µM (inactive).
For C/C=C/c1ccc([C@H]2[C@@H](CO)N[C@@H]2CN(CC(C)C)C(=O)c2ccccn2)cc1, the AC50 was > 10 µM (inactive).
For COCC(=O)NC[C@@H]1[C@@H](c2ccccc2)[C@@H](CO)N1C(=O)c1ccccc1, the AC50 was > 10 µM (inactive).
OC[C@@H]1[C@H]2c3ccccc3NC[C@H]2N1Cc1ccccc1Cl was tested, and the AC50 was > 10 µM (inactive).
CC(=O)N1C[C@H]2[C@@H](c3ccccc31)[C@@H](CO)N2Cc1ccc(Cl)cc1 was tested, and the AC50 was > 10 µM (inactive).
Cc1noc(C)c1NC(=O)N(C)C[C@H]1OCc2cn(nn2)CCCC(=O)N([C@@H](C)CO)C[C@H]1C was tested, and the AC50 was > 10 µM (inactive).
For C[C@H](CO)N1C[C@H](C)[C@@H](CN(C)S(=O)(=O)c2ccc3c(c2)OCCCO3)OCc2cnnn2CCCC1=O, the AC50 was > 10 µM (inactive).
For O=S(=O)(c1ccccc1)N1[C@@H](CO)[C@@H]2c3ccccc3NC[C@@H]21, the AC50 was > 10 µM (inactive).
With CCC(=O)N1[C@H](CO)[C@@H]2c3ccccc3N(S(=O)(=O)c3ccc(F)cc3)C[C@@H]21 the AC50 was > 10 µM (inactive).
O=C(c1ccccn1)N1C[C@@H]2[C@H](c3ccccc31)[C@@H](CO)N2C(=O)Nc1ccccc1Cl was tested, and the AC50 was > 10 µM (inactive).
With CC(=O)NC[C@H]1[C@@H](c2ccc(C#Cc3ccccc3F)cc2)[C@@H](CO)N1C(C)=O the AC50 was > 10 µM (inactive).
In the case of CN1[C@@H]2CN(C(=O)Nc3cc(F)ccc3F)c3ccccc3[C@@H]2[C@@H]1CO, the AC50 is reported as > 10 µM (inactive).
With CCC(=O)N1[C@H](CO)[C@H](c2ccc(-c3cccc(OC)c3)cc2)[C@@H]1CNC(C)=O the AC50 was > 10 µM (inactive).
For O=C(C1CCCCC1)N1[C@H](CO)[C@@H]2c3ccccc3N(S(=O)(=O)c3ccccc3)C[C@@H]21, the AC50 was > 10 µM (inactive).
In the case of CC(C)N(C[C@@H]1[C@@H](c2ccccc2)[C@H](CO)N1S(C)(=O)=O)C(=O)CN(C)C, the AC50 is reported as > 10 µM (inactive).
In the case of CN(C)CC(=O)N1C[C@@H]2[C@H](c3ccccc31)[C@H](CO)N2C(=O)c1ccccn1, the AC50 is reported as > 10 µM (inactive).
With O=C(C1CC1)N1C[C@@H]2[C@H](c3ccccc31)[C@H](CO)N2C(=O)c1ccccc1 the AC50 was > 10 µM (inactive).
For O=C(c1ccccc1F)N1C[C@@H]2[C@H](c3ccccc31)[C@@H](CO)N2Cc1ccc2c(c1)OCO2, the AC50 was > 10 µM (inactive).
With C[C@H]1CN([C@@H](C)CO)C(=O)CCCn2nncc2CO[C@H]1CN(C)C(=O)Nc1ccccc1C(F)(F)F the AC50 was > 10 µM (inactive).
In the case of O=C(C1CCOCC1)N1C[C@@H]2[C@H](c3ccccc31)[C@@H](CO)N2C(=O)Nc1ccccc1F, the AC50 is reported as > 10 µM (inactive).
For CCN(C[C@H]1N[C@H](CO)[C@H]1c1ccccc1)C(=O)c1ccncc1, the AC50 was > 10 µM (inactive).
OC[C@H]1[C@@H]2c3ccccc3NC[C@@H]2N1Cc1ccccc1Cl was tested, and the AC50 was > 10 µM (inactive).
For C[C@H]1CN([C@@H](C)CO)C(=O)CCCn2nncc2CO[C@@H]1CN(C)C(=O)Nc1ccc(-c2cccs2)cc1, the AC50 was > 10 µM (inactive).
With C[C@@H]1CN([C@@H](C)CO)C(=O)CCCn2nncc2CO[C@H]1CN(C)C(=O)Nc1ccccc1C(F)(F)F the AC50 was > 10 µM (inactive).
With O=C(NC[C@H]1[C@H](c2ccccc2)[C@@H](CO)N1Cc1ccccn1)C1CCCC1 the AC50 was > 10 µM (inactive).
With CCC(=O)N1[C@H](CO)[C@H](c2ccccc2)[C@H]1CN(CC1CCC1)S(C)(=O)=O the AC50 was > 10 µM (inactive).
C[C@@H]1CN([C@H](C)CO)C(=O)CCCn2nncc2CO[C@@H]1CN(C)Cc1ccccc1C(=O)O was tested, and the AC50 was > 10 µM (inactive).
With CC(=O)N1[C@H](CO)[C@H](c2ccccc2)[C@@H]1CN(C(=O)c1ccccc1F)C(C)C the AC50 was > 10 µM (inactive).
O=C(CC(F)(F)F)N1C[C@H]2[C@@H](c3ccccc31)[C@H](CO)N2CC1CCOCC1 was tested, and the AC50 was > 10 µM (inactive).
With COc1ccc(CN2[C@@H](CO)[C@@H]3c4ccccc4NC[C@@H]32)cc1 the AC50 was > 10 µM (inactive).
With C/C=C/c1ccc([C@@H]2[C@@H](CO)N[C@@H]2CN(CC)C(=O)CN2CCOCC2)cc1 the AC50 was > 10 µM (inactive).
In the case of Cc1noc(C)c1S(=O)(=O)N(C)C[C@@H]1OCc2cnnn2CCCC(=O)N([C@@H](C)CO)C[C@H]1C, the AC50 is reported as > 10 µM (inactive).
In the case of C[C@H](CO)N1C[C@H](C)[C@@H](CN(C)C(=O)NC2CCCC2)OCc2cnnn2CCCC1=O, the AC50 is reported as > 10 µM (inactive).
CCC(=O)N(C)C[C@@H]1[C@@H](c2ccccc2)[C@H](CO)N1Cc1cccnc1 was tested, and the AC50 was > 10 µM (inactive).
